Several values for one entry are separate records, joined by “and”; a condition that tells them apart may be missing. Identical values can stand only once.
Columns and labels:
[1] = system: vascular endothelial injury induced thrombosis model in zebrafish; assay: Preventative effect on vascular endothelial injury induced thrombosis, ponatinib zebrafish model (Example 1); type: in vivo; conditions: 4.00 ng/tail injected
Method: Experimental method: 420 tails of 5 dpf wild type AB strain zebrafish were randomly selected and placed in a six-well plate, with 30 fish per well (experimental group). The fish were injected with compound (1), compound (2), compound (3), compound (4), compound (5), compound (6), compound (7), compound (8), compound (9), compound (10), and compound (11) (structural formula shown in Table 1) at a dose of 4.00 ng/tail, with positive control drug acetylsalicylic acid being administered by dissolving it in water at a concentration of 30.0 µg/mL. Normal control group (i.e. zebrafish treated with standard diluted water) and model control group were set up, with a capacity of 3 mL per well (experimental group). Except for normal control group, the remaining experimental groups were all given Punatinib by dissolving it in water to induce vascular endothelial injury induced thrombosis model in zebrafish. The zebrafish were stained with o-dianisidine after co-treatment with ponatinib and samples for a period of time under incubation conditions at 28° C.
After staining, 10 zebrafish in each group were randomly selected and photographed under the microscope, and the intensity of cardiac erythrocyte staining in zebrafish was analyzed using NIS-Elements D 3.20 advanced image-processing software, and the samples were evaluated for the preventative effect on vascular endothelial injury induced thrombosis by the statistical results of cardiac erythrocyte staining intensity.
The preventative effect on thrombosis is calculated as follows: […]
Statistical analysis was performed using SPSS software, and p<0.05 indicates significant differences

[2] = system: tryptase; assay: Sensitization risk: tryptase expression (OD, BAPNA) in zebrafish (Example 2); type: in vivo
Method: Experimental method: 2 dpf wild type AB strain zebrafish were randomly selected and placed in a 24-well plate, with each group 6 parallel wells and 10 zebrafish per well. The zebrafish were injected intravenously with samples at a dose of 500 ng/tail and the positive control “C48/80” at a concentration of 1.5 μg/mL, while normal control group was set up. Each well has a capacity of 1 mL.
All experimental groups were given BAPNA by dissolving it in the water. After treatment at 28° C. for 1 day, the liquid was transferred to 96-well plates with 200 μL/well, and the relative absorbance values (OD values) of the expression levels of tryptase in each experimental group were detected using an microplate reader, and the results of the statistical analysis of the OD values were used to evaluate the risk of sensitization by sample. Statistical results were expressed as mean±SE.
Statistical analysis was performed using SPSS software, and p<0.05 indicates significant differences.

[3] = system: rats; assay: Bleeding time in rats, tail clipping (Example 4); type: in vivo, rat
Method: Grouping: Divided into 5 groups, with 10 animals in each group. […] The modeling started 30 min after the last dose. Detection index: the blood flow was open after 15 min, the thread was taken out, the residual liquid was sucked dry, the thread attached with thrombus was weighed and the wet weight of thrombus was calculated; the dry weight of thrombus was weighed and calculated after bake-drying in the oven at 50° C. Thrombosis inhibition rate was calculated. Tails were clipped at the end of the experiment to detect bleeding time.

[4] = system: rats with focal cerebral ischemia (MCAO)/reperfusion; assay: Therapeutic administration, cerebral ischemia-reperfusion injury MCAO/R in rats (Example 7); type: in vivo, rat
Method: Experimental method: SD rats were randomly divided into 11 groups, including pseudosurgery group, a model control group, positive control drug edaravone via intravenous injection (6 mg/kg, i.v.) group, positive control drug butylphthalide injection via intravenous injection (5 mg/kg, i.v.) group, compound (1) high-dose (24 mg/kg, i.v.), medium-dose (12 mg/kg, i.v.), low-dose (6 mg/kg, i.v.) via intravenous injection group, positive drug butylphthalide soft capsule via intragastric administration (60 mg/kg, i.g.) group, and compound via intragastric administration at (1) high-dose (60 mg/kg, i.g.), medium-dose (30 mg/kg, i.g.), low-dose (15 mg/kg, i.g.) group. A middle cerebral artery occlusion (MCAO) model for cerebral ischemia-reperfusion of male rats was prepared using the internal carotid suture-occluded method with an ischemic time of 90 min followed by reperfusion. Injection and oral administration for once were performed 1 h after reperfusion, and neurobehavioral scoring was performed on rats after 24 h to determine neurological function in rats; the cerebral infarction rate and cerebral water content of rats were determined by 2,3,5-triphenyltetrazolium chloride (TTC) staining.

[5] = system: Erastin-induced neuronal cells; assay: Cell viability (CCK8) of Erastin-induced neuronal cells (Example 8); type: cell-based, rat; conditions: Erastin 50 μM
Method: Experimental method: Primary neuron cells were incubated in a medium containing Erastin (final concentration of 50 μM) for 24 hours, and then incubated in a medium containing different concentrations of the test drug and Erastin (final concentration of 50 μM) for another 24 hours. After incubation, Real time PCR was used to detect mRNA expression of GPX4 in each group of cells, CCK8 assay was used to detect cell viability in each group of cells, C11-BODIPY probe method was used to detect intracellular lipid ROS levels in each group of cells, and PGSK probe method was used to detect iron content in cells.
The experimental data were expressed in means±SD, and statistical differences between groups were determined using one-way ANOVA and Tukey's test, with p-values less than 0.05 considered significant.
After incubation, the CCK8 experiment was used to detect the cell viability of each group of cells. The results were presented as Mean±SD. Compared with control group, ***p<0.0001. Compared with model control group, ^#P<0.05, ^##P<0.01.

CC(=O)N[C@H](CSCC1OC2OC3C(CSC[C@@H](NC(C)=O)C(=O)[O-])OC(OC4C(CSC[C@@H](NC(C)=O)C(=O)[O-])OC(OC5C(CSC[C@@H](NC(C)=O)C(=O)[O-])OC(OC6C(CSC[C@@H](NC(C)=O)C(=O)[O-])OC(OC7C(CSC[C@@H](NC(C)=O)C(=O)[O-])OC(OC8C(CSC[C@@H](NC(C)=O)C(=O)[O-])OC(OC9C(CSC[C@@H](NC(C)=O)C(=O)[O-])OC(OC1C(O)C2O)C(O)C9O)C(O)C8O)C(O)C7O)C(O)C6O)C(O)C5O)C(O)C4O)C(O)C3O)C(=O)[O-].[Na+].[Na+].[Na+].[Na+].[Na+].[Na+].[Na+].[Na+] (stereo partly drawn) [Compound (1)]
Preventative effect on thrombosis (%) [1]: 66% | Cardiac erythrocyte staining intensity (pixels, mean ± SE) ([1]; n = 10): 4397 ± 454 pixels | Cardiac erythrocyte staining intensity (pixels, mean ± SE) ([1]; n = 10, listed as compound (1)): 4397 pixels | Sensitization risk, in words ([2]; 500 ng/tail): no or substantially no sensitization risk | Relative sensitization risk (compared with positive control group) ([2]; 500 ng/tail intravenous): 13% | Sensitization risk (%) ([2]; 500 ng/tail intravenous): 11.1% | Absorbance value (OD value), parallel wells 1-6 ([2]; 500 ng/tail intravenous, 28° C. 1 day, single wells): 0.05725 and 0.05895 and 0.06195 and 0.06575 and 0.05845 and 0.05605 | Absorbance value (OD value), mean ([2]; 500 ng/tail intravenous, mean of 6 wells): 0.060 | Bleeding time ([3]; 10 mg/kg i.v., x ± s, n = 10): 403.4 ± 185.1 s | Bleeding time ([3]; 20 mg/kg i.v.): 422.6 ± 205.7 s | Bleeding time ([3]; 40 mg/kg i.v.): 428.4 ± 185.6 s | Effect on the bleeding time in rats, in words ([3]; intravenous, compared with model control group): no significant effect | Behavioral score ([4]; 6 mg/kg i.v. low-dose): 2.13 ± 0.35 | Cerebral infarction rate (%) ([4]; 6 mg/kg i.v. low-dose): 30.03 ± 7.79% | Cerebral water content (%) ([4]; 6 mg/kg i.v. low-dose): 82.30 ± 1.04 % | Behavioral score ([4]; 12 mg/kg i.v. medium-dose): 1.88 ± 0.35 | Cerebral infarction rate (%) ([4]; 12 mg/kg i.v. medium-dose): 16.94 ± 9.52 % | Cerebral water content (%) ([4]; 12 mg/kg i.v. medium-dose): 80.74 ± 0.89 % | Behavioral score ([4]; 15 mg/kg i.g. low-dose): 2.25 ± 0.71 | Cerebral infarction rate (%) ([4]; 15 mg/kg i.g. low-dose): 29.49 ± 5.93% | Cerebral water content (%) ([4]; 15 mg/kg i.g. low-dose): 82.24 ± 1.49% | Behavioral score ([4]; 24 mg/kg i.v. high-dose): 1.62 ± 0.52 | Cerebral water content (%) ([4]; 24 mg/kg i.v. high-dose): 79.95 ± 1.16 % | Cerebral infarction rate (%) ([4]; 24 mg/kg i.v. high-dose, 1 h after reperfusion): 11.64 ± 9.38 % | Behavioral score ([4]; 30 mg/kg i.g. medium-dose): 2.00 ± 0.53 | Cerebral infarction rate (%) ([4]; 30 mg/kg i.g. medium-dose): 21.52 ± 11.04 % | Cerebral water content (%) ([4]; 30 mg/kg i.g. medium-dose): 80.61 ± 1.21 % | Behavioral score ([4]; 60 mg/kg i.g. high-dose): 1.62 ± 0.52 | Cerebral infarction rate (%) ([4]; 60 mg/kg i.g. high-dose): 13.61 ± 10.24 % | Cerebral water content (%) ([4]; 60 mg/kg i.g. high-dose): 79.87 ± 1.71 % | Cell viability (%) ([5]; 1 μM, 24 h, control = 100, Mean±SD): 57.01 ± 2.82^ % | Cell viability (%) ([5]; 2.5 μM): 61.77 ± 6.56^ % | Cell viability (%) ([5]; 5 μM): 65.4 ± 5.81% | Cell viability (%) ([5]; 10 μM): 76.62 ± 5.99^## % | Cell viability (%) ([5]; 20 μM): 80.62 ± 5.39^## % | Cell viability (%) ([5]; 40 μM): 83.43 ± 6.21^## %

Reference: US20250064886A1, “CARDIOVASCULAR AND CEREBROVASCULAR DRUG AND USE THEREOF” (HANGZHOU ADAMERCK PHARMLABS INC., priority 2021, published 2025)
